Source: patent publication US5610310A, “Cyclic lipid derivatives as potent PAF antagonists” (Pohang Iron & Steel Co., Ltd, priority 1995, dated 1997)

Legend:
[1] = system: PAF-induced [^14 C]-serotonin release, rabbit platelets; experiment: Inhibitory action on PAF-induced [^14 C]-serotonin release; assay type: cell-based, rabbit (New Zealand white); conditions: Oryctolagus cuniculus, Platelet, PAF 1×10^-9 M; for inhibition at 0.2 µM: test compound 2 × 10^-7 M
Experimental: Inhibitory action on PAF-induced [^14 C]-serotonin release
Blood was collected from the hearts of conscious New Zealand white male rabbits weighing 2 to 3 kg. The blood was immediately subjected to a centrifuge at 1400 rpm for 10 minutes to obtain platelet rich plasma(PRP).PRP was incubated with a trace mount of [^14 C]-serotonin for 20 minutes at 22° C. Prelabelled platelets were prepared by centrifugation at 3500 rpm for 10 minutes. The test compound was added to 80 μl of [^14 C] serotonin-labeled platelets in plastic test tubes, and the mixture was incubated for 2 minutes. PAF (1×10^-9 M) was then added to the reaction mixture and incubated for additional 2 minutes at which time 10 μl of cold formaldehyde was added to stop the reactions. The tubes were immediately cooled to 4° C. and centrifuged at 12000 rpm for 2 minutes. The supernatants (80 μl) were assayed for percentage of [^14 C] serotonin release by the conventional methods of measuring ^14 C counts.

[2] = system: PAF-induced platelet aggregation, rabbit platelet-rich plasma; experiment: Inhibitory action on PAF-induced platelet aggregation; assay type: cell-based, rabbit (New Zealand white); conditions: Oryctolagus cuniculus, rabbit PRP, PAF 5×10^-9 M, 37° C.
Experimental: Inhibitory action on PAF-induced platelet aggregation Blood was collected from the […] of conscious New Zealand white male rabbits weighing 2 to 3 kg using citric acid as an anticoagulant (one volume pan of 3% citric acid relative to 9 volume parts of the whole blood). […] PRP was diluted with PPP to adjust the number of platelets to about 3×10^5 /μl. […] Platelet aggregation was then examined by means of turbidimetry [Born, Nature, 194, 927(1962)] with dual channel aggegometer (Chrono-Log. Corp., Havertown, Pa.). As the control, physiological saline without test sample was used. The platelet aggregation inhibiting activities of the test sample are expressed as IC50, that is the concentration of the compound at which 50% of the aggregation is inhibited.

[3] = molecular target: T1, PAF receptor (rabbit platelet membranes) (Oryctolagus cuniculus, UniProt G1TEI7); experiment: PAF Receptor Binding Assay; conditions: 0.6 nM [^3 H]C18 -PAF, 60 minutes, room temperature, calculated as IC50/2
T1 construct: Rabbit platelets were prepared by centrifugation and washing; tissue Pel-Freez (Rogers, AR); host or cells: rabbit platelets (washed, from citrated whole blood; lysed membranes)
T1 sequence (G1TEI7 1-342): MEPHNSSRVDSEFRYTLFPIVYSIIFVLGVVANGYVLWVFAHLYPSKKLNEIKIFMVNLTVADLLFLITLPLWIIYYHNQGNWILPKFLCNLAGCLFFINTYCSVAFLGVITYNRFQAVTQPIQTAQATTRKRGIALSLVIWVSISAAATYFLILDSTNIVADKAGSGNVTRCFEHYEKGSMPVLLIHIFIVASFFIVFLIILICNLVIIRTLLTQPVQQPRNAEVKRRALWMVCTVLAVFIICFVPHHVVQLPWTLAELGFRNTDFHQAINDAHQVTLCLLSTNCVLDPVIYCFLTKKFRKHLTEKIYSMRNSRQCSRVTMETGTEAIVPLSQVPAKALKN
Experimental: PAF Receptor Binding Assay Citrated whole rabbit blood was obtained from Pel-Freez(Rogers, AR). Rabbit platelets were prepared by centrifugation and washing. The platelets were lysed by freeze-thawing and sonification; Platelet membranes were prepared by centrifugation and washing. Final membrane preparation were stored frozen in 10 mM Tris/5 mM MgCl2 /2 mM EDTA (TME buffer, pH 7.0) with 0.25M sucrose added for membrane stabilization. […] The final volume of the assay was 100 μl. […] The […] and removed. The bound radioactivity was quantitated with a Berthold TLC-Linear Analyzer model LB2842. […] Experiments were repeated at least once. […] Ki values of inhibitory binding constants were calculated according to the methods of the literature[Cheng et al., Biochem.

| Structure (SMILES) | IC50 [2] [nM] | Ki [3] [nM] | other results |
| --- | --- | --- | --- |
| CCCCCCCCCCCCCCCCCCNC(=O)OC[C@@H]1C[C@H](COC(=O)N(Cc2cccc[n+]2CC)C(C)=O)O1 (relative stereo) [Example 3, cis-2-[[N-Acetyl-N-[[[4-[[(octadecylcarbamoyl)oxy]methyl]-2-oxetanyl]methoxy]carbonyl]amino]methyl]-1-ethyl-pyridinium iodide] | – | – | inhibition at 0.2 µM [1]: 97%; inhibition at 0.005 µM ([1]; test compound 5 × 10^-9 M): 58% |
| CCCCCCCCCCCCCCCCCCNC(=O)OC[C@H]1C[C@H](COC(=O)N(Cc2cccc[n+]2CC)C(C)=O)O1 (relative stereo) [Example 5, trans-2-[[N-Acetyl-N-[[[4-[[(octadecylcarbamoyl)oxy]methyl]-2-oxetanyl]methoxy]carbonyl]amino]methyl]-1-ethyl-pyridinium iodide] | – | – | inhibition at 0.2 µM [1]: 97% |
| CCCCCCCCCCCCCCCCCCNC(=O)OC[C@H]1C[C@H](COC(=O)N(Cc2cccc[n+]2CC)C(C)=O)S1 (relative stereo) [Example 27, trans-2-[[N-Acetyl-N-[[[4-[[(Octadecylcarbamoyl)oxy]methyl]-2-thietanyl]methoxy]carbonyl]amino]methyl]-1-ethyl-pyridinium chloride] | 57 | 4.3 | – |
| CCCCCCCCCCCCCCCCCCNC(=O)OC[C@@H]1C[C@H](COC(=O)N(Cc2cccc[n+]2CC)C(C)=O)S1 (relative stereo) [Example 28, cis-2-[[N-Acetyl-N-[[[4-[[(octadecylcarbamoyl)oxy]methyl]-2-thietanyl]methoxy]carbonyl]amino]methyl]-1-ethyl-pyridinium chloride] | 61 | 9.8 | – |
| CCCCCCCCCCCCCCCCNC(=O)OC[C@H]1C[C@H](COC(=O)N(Cc2cccc[n+]2CC)C(C)=O)S1 (relative stereo) [Example 29, trans-2-[[N-Acetyl-N-[[[4-[[(hexadecylcarbamoyl)oxy]methyl]-2-thietanyl]methoxy]carbonyl]amino]methyl]-1-ethyl-pyridinium chloride] | 21 | 9.8 | – |
| CCCCCCCCCCCCCCCCCCNC(=O)OC[C@@H]1C[C@@H](COC(=O)N(Cc2cccc[n+]2CC)C(=O)c2ccccc2OC)S1 (relative stereo) [Example 30] | 84 | – | – |
| CCCCCCCCCCCCCCCCNC(=O)OC[C@@H]1C[C@@H](COC(=O)N(Cc2cccc[n+]2CC)C(=O)c2ccccc2OC)S1 (relative stereo) [Example 31, trans-2-[[N-(2-Methoxy)benzoyl-N-[[[4-[[(hexadecylcarbamoyl)oxy]methyl]-2-thietanyl]methoxy]carbonyl]amino]methyl]1-ethyl-pyridinium chloride] | 69 | – | – |
| CCCCCCCCCCCCCCCCCCNC(=O)OCC1(COC(=O)N(Cc2cccc[n+]2CC)C(C)=O)COC1 [Example 6, 2-[[N-Acetyl-N-[[[3-[[(octadecylcarbamoyl)oxy]methyl]-3-oxetanyl]methoxy]carbonyl]amino]methyl]-1-ethyl-pyridinium iodide] | – | – | inhibition at 0.2 µM [1]: 98%; inhibition at 0.05 µM ([1]; test compound 5 × 10^-8 M): 96% |
| CCCCCCCCCCCCCCCCNC(=O)OCC1(COC(=O)N(Cc2cccc[n+]2CC)C(C)=O)COC1 [Example 8, 2-[[N-Acetyl-N-[[[3-[[(hexadecylcarbamoyl)oxy]methyl]-3-oxetanyl]methoxy]carbonyl]amino]methyl]-1-ethyl-pyridinium iodide] | 93 | 95 | – |
| CCCCCCCCCCCCCCCCOCC1(COC(=O)N(Cc2cccc[n+]2CC)C(C)=O)COC1 [Example 9, 2-[[N-Acetyl-N-[[[3-[(hexadecyloxy)methyl]-3-oxetanyl]methoxy]carbonyl]amino]methyl]-1-ethyl-pyridinium iodide] | 219 | 110 | – |
| CCCCCCCCCCCCCCCCCCNC(=O)OCC1(COC(=O)N(Cc2cccc[n+]2CC)C(C)=O)CCCC1 [Example 16, 2-[[N-Acetyl-N-[[[1-[[(octadecylcarbamoyl)oxy]methyl]-1-cyclopentyl]methoxy]carbonyl]amino]methyl]-1-ethyl-pyridinium iodide] | 573 | 3.8 | – |
| CCCCCCCCCCCCCCCCCCNC(=O)OC[C@H]1C[C@H](COC(=O)N(Cc2cccc[n+]2CC)C(C)=O)C1 [Example 19, trans-2-[[N-Acetyl-N-[[[3-[[(octadecylcarbamoyl)oxy]methyl]-1-cyclobutyl]methoxy]carbonyl]amino]methyl]-1-ethyl-pyridinium iodide] | 56 | 4.3 | – |
| CCCCCCCCCCCCCCCCNC(=O)OCC1(COC(=O)N(Cc2cccc[n+]2CC)C(C)=O)CCCC1 [Example 20, 2-[[N-Acetyl-N-[[[1-[[(hexadecylcarbamoyl)oxy]methyl]-1-cyclopentyl]methoxy]carbonyl]amino]methyl]-1-ethyl-pyridinium iodide] | 350 | 1.2 | – |
| CCCCCCCCCCCCCCCCCCNC(=O)OCC1(COC(=O)CCCC[n+]2ccsc2)CCCC1 [Example 22, 3-[4-[[[1-[[(Octadecylcarbamoyl)oxy]methyl]-1-cyclopentyl]methoxy]carbonyl]butyl]thiazolium bromide] | 1140 | – | – |
| CCCCCCCCCCCCCCCCCCNC(=O)OCC1(COC(=O)CCCC[n+]2cccc3ccccc32)CCCC1 [Example 23, N-[4-[[[1-[[(Octadecylcarbamoyl)oxy]methyl]1-cyclopentyl]methoxy]carbonyl]butyl]quinolinium bromide] | 95 | 9.4 | – |

Second part, led by results:

| IC50 [2] [nM] | Ki [3] [nM] | Structure (SMILES) | other results |
| --- | --- | --- | --- |
| 52 | 20 | CCCCCCCCCCCCCCCCOC[C@H]1C[C@H](COC(=O)N(Cc2cccc[n+]2CC)C(C)=O)S1 (relative stereo) [Example 32, trans-2-[[N-Acetyl-N-[[[4-[(hexadecyloxy)methyl]-2-thietanyl]methoxy]carbonyl]amino]methyl]-1-ethyl-pyridinium chloride] | – |
| 350 | – | CCCCCCCCCCCCCCCCCCNC(=O)OC[C@H]1C[C@H](COC(=O)CCCC[n+]2cccc3ccccc32)S1 (relative stereo) [Example 34, trans-N-[4-[[[4-[[(Octadecylcarbamoyl)oxy]methyl]-2-thietanyl]methoxy]carbonyl]butyl]quinolinium bromide] | – |
| 275 | – | CCCCCCCCCCCCCCCCCCNC(=O)OC[C@H]1C[C@H](COCCCC[n+]2cccc3ccccc32)S1 (relative stereo) [Example 35, trans-N-[4-[[4-[[(Octadecylcarbamoyl)oxy]methyl]-2-thietanyl]methoxy]butyl]quinolinium bromide] | – |
| 29 | 35 | CCCCCCCCCCCCCCCCCCNC(=O)OC[C@@H]1C[C@@H](COC(=O)N(Cc2cccc[n+]2CC)C(C)=O)N1C(C)=O (relative stereo) [Example 43, 2-[[N-Acetyl-N-[[[4-[[(octadecylcarbamoyl)oxy]methyl]-1-acetylazetidine-2-yl]methoxy]carbonyl]amino]methyl]-1-ethyl-pyridinium chloride] | – |
| 125 | 9.3 | CCCCCCCCCCCCCCCCCCNC(=O)OCC1(COC(=O)N(Cc2cccc[n+]2CC)C(C)=O)C[S+]([O-])C1 (stereo not drawn) [Example 37, 2-[[N-Acetyl-N-[[[3-[[(octadecylcarbamoyl)oxy]methyl]thietane 1-oxide-3-yl]methoxy]carbonyl]amino]methyl]-1-ethyl-pyridinium iodide] | – |
| 178 | 278 | CCCCCCCCCCCCCCCCCCNC(=O)OCC1(COC(=O)N(Cc2cccc[n+]2CC)C(C)=O)CS(=O)(=O)C1 [Example 38, 2-[[N-Acetyl-N-[[[3-[[(octadecylcarbamoyl)oxy]methyl]thietane 1,1-dioxide-3-yl]methoxy]carbonyl]amino]methyl]-1-ethyl-pyridinium iodide] | – |
| 57 | 30 | CCCCCCCCCCCCCCCCCCNC(=O)OCC1(COC(=O)CCCCC[n+]2cccc3ccccc32)CSC1 [Example 41, N-[5-[[[3-[[(Octadecylcarbamoyl)oxy]methyl]-3-thietanyl]methoxy]carbonyl]pentyl]quinolinium bromide] | – |
| 658 | – | CCCCCCCCCCCCCCCCOCC1(COC(=O)CCCC[n+]2cccc3ccccc32)CSC1 [Example 42, N-[4-[[[3-[(Hexadecyoxy)methyl]-3-thietanyl]methoxy]carbonyl]butyl]quinolinium bromide] | – |
